From patent publication US20230340018A1, “MPRO CYSTEINE PROTEASE INHIBITORS” (ANIXA BIOSCIENCES, INC., priority 2020, published 2023)

Tests used:
[1] = target: SARS-CoV-2 main protease Mpro (Severe acute respiratory syndrome coronavirus 2, UniProt P0DTD1); assay: FRET-based Mpro enzyme activity assay; type: biochemical; conditions: recombinant Mpro, 30 min pre-incubation, 0 - 200 µM; read-out: Mpro enzyme inhibition IC50
in vitro = conditions: human

In the case of `COc1cccc2[nH]c(C(=O)N[C@@H](CC3CC3)C(=O)N[C@@H](CN3CCNC3=O)C(=O)C(=O)NCC3CC3)cc12` [Compound 12, N-((S)-3-Cyclopropyl-1-(((S)-4-((cyclopropylmethyl)amino)-3,4-dioxo-1-(2-oxoimidazolidin-1-yl)butan-2-yl)amino)-1-oxopropan-2-yl)-4-methoxy-1H-indole-2-carboxamide], the IC50 [1] is reported as no more than 2 µM and the CC50 at 72 h (in vitro) is reported as greater than 100 µM.
`CC(C)C[C@H](NC(=O)c1cc2ccccc2[nH]1)C(=O)N[C@@H](CN1CCNC1=O)C(=O)C(=O)NCC1CC1` [Compound 24, N-((S)-1-(((S)-4-((cyclopropylmethyl)amino)-3,4-dioxo-1-(2-oxoimidazolidin-1-yl)butan-2-yl)amino)-4-methyl-1-oxopentan-2-yl)-1H-indole-2-carboxamide] showed an IC50 [1] of 2 to 20 µM and a CC50 at 72 h (in vitro) greater than 100 µM.
In the case of `COc1cccc2[nH]c(C(=O)N[C@@H](CC(C)C)C(=O)N[C@@H](CN3CCNC3=O)C(=O)C(=O)NCC3CC3)cc12` [Compound 10, N-((S)-1-(((S)-4-((Cyclopropylmethyl)Amino)-3,4-Dioxo-1-(2-Oxoimidazolidin-1-yl)Butan-2-yl)Amino)-4-Methyl-1-Oxopentan-2-yl)-4-Methoxy-1H-Indole-2-Carboxamide], the IC50 [1] is reported as no more than 2 µM and the CC50 at 72 h (in vitro) is reported as greater than 100 µM.
Work on `CC(C)C[C@H](NC(=O)c1cc2ccccc2[nH]1)C(=O)N[C@@H](CN1CCNC1=O)C(O)C(=O)NCC1CC1` (stereo partly drawn) [Compound 26, N-((2S)-1-(((2S)-4-((cyclopropylmethyl)amino)-3-hydroxy-4-oxo-1-(2-oxoimidazolidin-1-yl)butan-2-yl)amino)-4-methyl-1-oxopentan-2-yl)-1H-indole-2-carboxamide] yielded an IC50 [1] of no more than 2 µM and a CC50 at 72 h (in vitro) greater than 100 µM.
With `CC(C)C[C@H](NC(=O)OC(C)(C)C)C(=O)N[C@@H](Cc1ccc[nH]c1=O)C(=O)C(=O)NCc1ccccc1` [Compound 27, tert-butyl ((S)-1-(((S)-4-(benzylamino)-3,4-dioxo-1-(2-oxo-1,2-dihydropyridin-3-yl)butan-2-yl)amino)-4-methyl-1-oxopentan-2-yl)carbamate] the IC50 [1] was 2 to 20 µM and the CC50 at 72 h (in vitro) was greater than 100 µM.
With `COc1cccc2[nH]c(C(=O)N[C@H](C(=O)N[C@@H](CN3CCNC3=O)C(=O)C(=O)Nc3ccccc3)C3CCCCC3)cc12` [Compound 25, N-((S)-1-cyclohexyl-2-(((S)-3,4-dioxo-1-(2-oxoimidazolidin-1-yl)-4-(phenylamino)butan-2-yl)amino)-2-oxoethyl)-4-methoxy-1H-indole-2-carboxamide] the IC50 [1] was no more than 2 µM and the CC50 at 72 h (in vitro) was greater than 100 µM.
`CC(C)C[C@H](NC(=O)c1cc2ccccc2[nH]1)C(=O)N[C@@H](Cc1ccc[nH]c1=O)C(=O)C(=O)NCc1ccccc1` [Compound 22, N-((S)-1-(((S)-4-(Benzylamino)-3,4-Dioxo-1-(2-Oxo-1,2-Dihydropyridin-3-yl)Butan-2-yl)Amino)-4-Methyl-1-Oxopentan-2-yl)-1H-Indole-2-Carboxamide] showed an IC50 [1] of no more than 2 µM and a CC50 at 72 h (in vitro) greater than 100 µM.
With `CC(C)C[C@H](NC(=O)c1nc2ccccc2[nH]1)C(=O)N[C@@H](Cc1ccc[nH]c1=O)C(=O)C(=O)NCc1ccccc1` [Compound 23, N-((S)-1-(((S)-4-(benzylamino)-3,4-dioxo-1-(2-oxo-1,2-dihydropyridin-3-yl)butan-2-yl)amino)-4-methyl-1-oxopentan-2-yl)-1H-benzo[d]imidazole-2-carboxamide] the IC50 [1] was no more than 2 µM and the CC50 at 72 h (in vitro) was greater than 100 µM.
